{
  "source": "patent US7585851B2",
  "about": "“3′-prodrugs of 2′-deoxy-β-L-nucleosides” (priority 2000, dated 2009)",
  "key": {"[1]": {"experiment": "Bioavailability of the prodrugs of L-dC in monkeys, with and without L-dT", "settings": "oral"}, "Influenza A/H1N1": {"tested_on": "Influenza A/H1N1", "experiment": "Antiviral panel: Influenza A/H1N1 (MDCK)", "format": "cell-based"}, "WHV [2]": {"tested_on": "WHV", "settings": "0.01-10 mg/kg/day orally, woodchucks"}, "[3]": {"tested_on": "Daudi, Burkitt's B-cell lymphoma"}, "[4]": {"tested_on": "cytosolic extracts of HepG2 cells", "experiment": "Steady state phosphorylation kinetics in HepG2 cytosolic extracts", "format": "biochemical, human"}, "[5]": {"experiment": "Oral bioavailability of L-dC via dival-L-dC in cynomologus monkey (HPLC study)", "settings": "cynomolgus monkey, in vivo, po", "description": "The drug was quantitated in plasma and in urine using HPLC analysis."}, "[6]": {"format": "in vivo, cynomologus monkey", "experimental": "The pharmacokinetics of L-dC following IV and oral administration of L-dC to cynomologus monkeys was determined. […] Following a six week washout period, the same three monkeys received an identical oral dose of L-dC. Blood samples for pharmacokinetic analysis were collected pre-dose and at 0.25, 0.5, 1, 2, 3, 6, 8 and 24 hours after dosing. Urine samples for pharmacokinetic analyses were collected via pan catch pre-dose and over the following intervals post-dose: 0-2, […], 4-8, and 8-12 hours, and then over 12-hour intervals thereafter through 336 hours post-dose. The drug was detected and the concentration determined using a reverse-phase high-performance liquid chromatography technique."}, "[7]": {"tested_on": "MA-104, rhesus monkey kidney epithelial cells"}, "DHBV": {"tested_on": "DHBV", "experiment": "DHBV DNA synthesis in primary duck hepatocyte cultures", "format": "cell-based, duck hepatitis B virus", "settings": "primary duck hepatocytes (PDH)"}, "bone marrow cells": {"tested_on": "bone marrow cells", "experiment": "Mouse micronucleus assay", "format": "in vivo", "settings": "single oral dose up to 2000 mg/kg, male and female mice", "experimental": "L-dC was tested for its potential to induce micronucleated polychromatic erythrocytes (MPCE) in the bone marrow cells of male and female mice. L-dC at concentrations of 500, 1000, and 2000 mg/kg and positive and negative controls were tested. Study […] as a single dose. Two harvests approximately 24 and 48 hours after L-dC or negative control administration were performed, and a single harvest approximately 24 hours after positive control administration was performed. Five male and five female mice per dose group per harvest time were used. The percentage of polychromatic erythrocytes (PCE) and MPCE frequency were determined for each timepoint."}, "[8]": {"tested_on": "CV-1, African green monkey kidney fibroblast cells"}, "cultured CHO cells": {"tested_on": "cultured CHO cells", "experiment": "Chromosomal aberration assay", "format": "cell-based, Chinese hamster", "settings": "with and without metabolic activation, 5000 μg/mL"}, "HepG2 cells": {"tested_on": "HepG2 cells", "experiment": "Mitochondrial toxicity assay in HepG2 cells", "format": "cell-based, human"}, "[9]": {"tested_on": "Escherichia coli strain WP2uvrA", "experiment": "Plate incorporation mutation assay, E. coli", "settings": "with and without rat liver S-9; up to 5000 mg/plate, 5000 μg/plate", "experimental": "L-dC was tested for its potential to cause mutation at the histidine operon of Salmonella typhimurium strains TA98, TA100, TA1535, and TA1537 and at the tryptophan opeton of Escherichia coli strain WP2uvrA. L-dC at concentrations of […] plus positive and negative controls were tested. […] After incubation for approximately 68 hours, L-dC and controls were evaluated for the number of revertants per plate and integrity of the background microcolony lawn."}, "[10]": {"format": "in vivo, rhesus monkey", "experimental": "The pharmacokinetics of L-dC following oral administration in the rhesus monkey was determined. […] Blood samples for pharmacokinetic analysis were collected pre-dose and at 0.25, 0.5, 1, 2, 3, 6, 8 and 24 hours after dosing. Urine samples for pharmacokinetic analyses were collected via pan catch pre-dose and over the following intervals post-dose: 0-2, 2-4, 4-8 and 8-12 hours, and then at 12-hour intervals thereafter through 336 hours post-dose. The drug was detected and concentration determined using a reverse-phase HPLC technique."}, "Parainfluenza type 3": {"tested_on": "Parainfluenza type 3", "experiment": "Antiviral panel: Parainfluenza type 3 (MA-104)", "format": "cell-based"}, "WHV [11]": {"tested_on": "WHV", "experiment": "Woodchuck model of chronic hepatitis B infection, 12 weeks oral", "settings": "1 mg/kg/day orally, woodchucks", "experimental": "WHV DNA and body weight were measured on Days 0, 1, 3, 7, 14, 21, 28, 42, 56, and 84 as well as on post-treatment Days 7, 14, 21, 28, 42, 56, 70, and 84. WHV DNA levels were determined by quantitative PCR. Appropriate samples for hematology, serum chemistries, WHV serology, and liver biopsy were collected pretreatment and on Day 84."}, "[12]": {"tested_on": "KB, human nasopharyngeal carcinoma"}, "Measles": {"tested_on": "Measles", "experiment": "Antiviral panel: Measles (CV-1)", "format": "cell-based"}, "[13]": {"settings": "rat, in vivo"}, "HBV": {"tested_on": "HBV", "experiment": "Anti-HBV activity in HBV-expressing 2.2.15 cells (HBV DNA reduction)", "settings": "2.2.15 cells"}, "[14]": {"tested_on": "HFF, human foreskin fibroblast"}, "[15]": {"settings": "L-dC 10 mg/kg IV, cynomologus monkey"}, "[16]": {"settings": "L-dC 10 mg/kg oral, cynomologus monkey"}, "[17]": {"settings": "HepG2, L-dC 10, FIAU 10, ZDV 50, ddC 1 μM"}, "[18]": {"settings": "L-dC 10 mg/kg oral, rhesus monkey"}},
  "note": "Values joined by “and” are separate entries in the source; they are usually repeats but may differ in a detail not shown here. Equal values may be shown once. “Also recorded” adds a separate entry of the source. Read-outs that look alike come from different tables or passages of the source.",
  "data": [
    {"compound": "Nc1ccn([C@@H]2C[C@@H](O)[C@H](CO)O2)c(=O)n1", "note": "[L-dC, 2′-deoxy-β-L-cytidine]", "values": [
      {"measurement": "% BA w/ L-dT", "setting": "[1]; coadministered with 10 mg/kg L-dT", "result": "11.9 ± 1.7", "unit": "%"},
      {"measurement": "% BA (bioavailability of L-dC)", "setting": "[1]; estimated relative to AUC of L-dC (oral dose)", "result": "16.4 ± 5.0", "unit": "%"},
      {"measurement": "EC50", "setting": "Influenza A/H1N1", "result": "> 100", "unit": "µM"},
      {"measurement": "toxicity during four-week treatment and eight-week follow-up", "setting": "WHV [2]", "result": "no drug-related toxicity; also recorded: no toxicity was observed"},
      {"measurement": "CC50", "setting": "[3]", "result": ">50", "unit": "µg/mL"},
      {"measurement": "Vmax of phosphorylation", "setting": "[4]", "result": 1.12, "unit": "mmol/min/mg protein"},
      {"measurement": "share of drug excreted / recovered dose in urine, by analyte", "setting": "[5]", "result": "~89", "unit": "%"},
      {"measurement": "renal clearance as share of total L-dC clearance", "setting": "[6]; IV", "result": 87, "unit": "%"},
      {"measurement": "share of the dose recovered in the urine, by analyte", "setting": "[6]; IV L-dC, analyte = label", "result": 94, "unit": "%"},
      {"measurement": "administered dose recovered in urine", "setting": "[6]; IV, within 2 hours", "result": 71, "unit": "%"},
      {"measurement": "CL", "setting": "[6]; [15]", "result": 8.83, "unit": "mL/min/kg"},
      {"measurement": "CLR", "setting": "[6]; [15]", "result": 7.67, "unit": "mL/min/kg"},
      {"measurement": "Cmax", "setting": "[6]; [15]", "result": 95.7, "unit": "µM"},
      {"measurement": "Tmax", "setting": "[6]; [15]", "result": 0, "unit": "h"},
      {"measurement": "Vd", "setting": "[6]; [15]", "result": 1.22, "unit": "L/kg"},
      {"measurement": "t1/2", "setting": "[6]; [15]", "result": 1.59, "unit": "h"},
      {"measurement": "oral bioavailability F", "setting": "[6]; L-dC 10 mg/kg oral vs IV, cynomologus monkey", "result": 16.4, "unit": "%"},
      {"measurement": "Cmax", "setting": "[6]; [16]", "result": 3.38, "unit": "µM"},
      {"measurement": "Tmax", "setting": "[6]; [16]", "result": 2.33, "unit": "h"},
      {"measurement": "terminal t1/2", "setting": "[6]; [16]", "result": 2.95, "unit": "h"},
      {"measurement": "share of drug excreted / recovered dose in urine, by analyte", "setting": "[6]; oral L-dC, analyte = label", "result": "~69", "unit": "%"},
      {"measurement": "administered oral dose recovered in urine", "setting": "[6]; after 72 hours", "result": "15.5%±8%"},
      {"measurement": "administered oral dose recovered in urine", "setting": "[6]; within 12 hours", "result": "Approximately 8.5%"},
      {"measurement": "CC50", "setting": "[7]", "result": "> 100", "unit": "µM"},
      {"measurement": "EC50", "setting": "DHBV", "result": 0.87, "unit": "µM"},
      {"measurement": "micronucleus assay result", "setting": "bone marrow cells", "result": "negative; also recorded: not clastogenic"},
      {"measurement": "CC50", "setting": "[8]", "result": "> 100", "unit": "µM"},
      {"measurement": "chromosomal aberrations", "setting": "cultured CHO cells", "result": "no evidence of chromosomal aberrations"},
      {"measurement": "effect on mitochondrial DNA content", "setting": "HepG2 cells; HepG2, 14 days, concentrations up to 0.10 μM", "result": "no effect"},
      {"measurement": "CC50", "setting": "HepG2 cells; HepG2, after 14 days of treatment", "result": "> 2000", "unit": "µM"},
      {"measurement": "L-Lactate, % of Control", "setting": "HepG2 cells; [17]", "result": "101 ± 2 % of Control"},
      {"measurement": "Lipid Droplet Formation", "setting": "HepG2 cells; [17]", "result": "negative"},
      {"measurement": "mtDNA, % of Control", "setting": "HepG2 cells; [17]", "result": "107 ± 8 % of Control"},
      {"measurement": "Mitochondrial Morphology", "setting": "HepG2 cells; HepG2, L-dC 10, FIAU 10, ZDV 50, ddC 1 μM, electron microscopy", "result": "No discernible changes; also recorded: normal"},
      {"measurement": "mutagenicity", "setting": "[9]", "result": "no evidence of mutagenicity; also recorded: not mutagenic"},
      {"measurement": "Tmax", "setting": "[10]; [18]", "result": 0.83, "unit": "h"},
      {"measurement": "renal clearance", "setting": "[10]; [18]", "result": 4.55, "unit": "mL/min/kg"},
      {"measurement": "t1/2", "setting": "[10]; [18]", "result": 3.34, "unit": "h"},
      {"measurement": "oral bioavailability", "setting": "[10]; L-dC oral, rhesus monkey", "result": "~16", "unit": "%"},
      {"measurement": "administered oral dose recovered in urine", "setting": "[10]; after 48 hours", "result": 15, "unit": "%"},
      {"measurement": "share of drug excreted / recovered dose in urine, by analyte", "setting": "[10]; oral L-dC, analyte = label", "result": "~77", "unit": "%"},
      {"measurement": "administered oral dose recovered in urine", "setting": "[10]; within 8 hours", "result": "Approximately 8.5%"},
      {"measurement": "EC50", "setting": "Parainfluenza type 3", "result": "> 100", "unit": "µM"},
      {"measurement": "end-of-treatment liver biopsy histomorphology", "setting": "WHV [11]", "result": "no histomorphological evidence of fatty changes; also recorded: no evidence of fatty change"},
      {"measurement": "CC50", "setting": "[12]", "result": "> 100", "unit": "µM"},
      {"measurement": "EC50", "setting": "Measles", "result": "> 100", "unit": "µM"},
      {"measurement": "Tlast", "setting": "[13]", "result": 24, "unit": "h"},
      {"measurement": "estimated terminal phase half-lives", "setting": "[13]; 1000 mg/kg", "result": "9 to 17", "unit": "h"},
      {"measurement": "estimated terminal phase half-lives", "setting": "[13]; 2000 mg/kg", "result": "6 to 8", "unit": "h"},
      {"measurement": "AUClast", "setting": "[13]; po, 2000 mg/kg/day", "result": 461, "unit": "µg·h/mL"},
      {"measurement": "EC90", "setting": "HBV; 10-fold reduction of HBV virion DNA levels (Table 25)", "result": "1.1 ± 0.1", "unit": "µM"},
      {"measurement": "EC50", "setting": "HBV; read-out: EC50 for reduction in extracellular HBV DNA", "result": 0.24, "unit": "µM"},
      {"measurement": "EC50", "setting": "HBV; read-out: EC50 for reduction of intracellular HBV DNA replicative intermediates (RI)", "result": "0.51 µM and 0.5 µM"},
      {"measurement": "EC90", "setting": "HBV; read-out: EC90 against HBV replication (extracellular HBV DNA)", "result": "1.07 µM and 1.06 µM"},
      {"measurement": "CC50", "setting": "[14]", "result": ">100", "unit": "µg/mL"}
    ]}
  ]
}
